Tests used:
[1] = The drug is tested on Bifidobacterium ruminantium strain: fecal isolate for biotransformation. The drug concentrations were measured before and after a 12-h incubation by liquid-chromatography-coupled mass spectrometry (LC–MS); details: 2 µM
[2] = The drug is tested on Collinsella intestinalis strain: DSM13280 for biotransformation. The drug concentrations were measured before and after a 12-h incubation by liquid-chromatography-coupled mass spectrometry (LC–MS); details: 2 µM
[3] = The drug is tested on Bacteroides caccae strain: ATCC43185 for biotransformation. The drug concentrations were measured before and after a 12-h incubation by liquid-chromatography-coupled mass spectrometry (LC–MS); details: 2 µM
[4] = The drug is tested on Bacteroides coprophilus strain: DSM18228 for biotransformation. The drug concentrations were measured before and after a 12-h incubation by liquid-chromatography-coupled mass spectrometry (LC–MS); details: 2 µM
[5] = The drug is tested on Bacteroides fragilis strain: HMW615 for biotransformation. The drug concentrations were measured before and after a 12-h incubation by liquid-chromatography-coupled mass spectrometry (LC–MS); details: 2 µM
[6] = The drug is tested on Bacteroides uniformis strain: ATCC8492 for biotransformation. The drug concentrations were measured before and after a 12-h incubation by liquid-chromatography-coupled mass spectrometry (LC–MS); details: 2 µM
[7] = The drug is tested on Bacteroides vulgatus strain: ATCC8482 for biotransformation. The drug concentrations were measured before and after a 12-h incubation by liquid-chromatography-coupled mass spectrometry (LC–MS); details: phocaeicola vulgatus, 2 µM
[8] = The drug is tested on Bacteroides sp. WH2 strain: WH2 for biotransformation. The drug concentrations were measured before and after a 12-h incubation by liquid-chromatography-coupled mass spectrometry (LC–MS); details: bacteroides sp. wh2, 12 h, 2 µM
[9] = The drug is tested on Bacteroides xylanisolvens strain: DSM18836 for biotransformation. The drug concentrations were measured before and after a 12-h incubation by liquid-chromatography-coupled mass spectrometry (LC–MS); details: 2 µM
[10] = The drug is tested on Odoribacter splanchnicus strain: fecal isolate for biotransformation. The drug concentrations were measured before and after a 12-h incubation by liquid-chromatography-coupled mass spectrometry (LC–MS); details: 2 µM
[11] = The drug is tested on Anaerococcus hydrogenalis strain: DSM7454 for biotransformation. The drug concentrations were measured before and after a 12-h incubation by liquid-chromatography-coupled mass spectrometry (LC–MS); details: 2 µM
[12] = The drug is tested on Dorea formicigenerans strain: ATCC27755 for biotransformation. The drug concentrations were measured before and after a 12-h incubation by liquid-chromatography-coupled mass spectrometry (LC–MS); details: 2 µM
[13] = The drug is tested on Ruminococcus torques strain: ATCC27756 for biotransformation. The drug concentrations were measured before and after a 12-h incubation by liquid-chromatography-coupled mass spectrometry (LC–MS); format: ADME; parameters: dose 2 uM, timepoint 0 vs 12 hours; details: 2 µM
[14] = The drug is tested on Providencia rettgeri strain: DSM1131 for biotransformation. The drug concentrations were measured before and after a 12-h incubation by liquid-chromatography-coupled mass spectrometry (LC–MS); format: ADME; parameters: dose 2 uM, timepoint 0 vs 12 hours; details: 2 µM
[15] = The drug is tested on Providencia stuartii strain: ATCC25827 for biotransformation. The drug concentrations were measured before and after a 12-h incubation by liquid-chromatography-coupled mass spectrometry (LC–MS); details: 2 µM
[16] = parabacteroides johnsonii, 12 h, 2 µM
Description: The drug is tested on Parabacteroides johnsonii strain: DSM18315 for biotransformation. The drug concentrations were measured before and after a 12-h incubation by liquid-chromatography-coupled mass spectrometry (LC–MS)

[17] = bacteroides fragilis, 12 h, 2 µM
Description: The drug is tested on Bacteroides fragilis strain: DS-208 for biotransformation. The drug concentrations were measured before and after a 12-h incubation by liquid-chromatography-coupled mass spectrometry (LC–MS)

[18] = bacteroides intestinalis, 12 h, 2 µM
Description: The drug is tested on Bacteroides intestinalis strain: DSM17393 for biotransformation. The drug concentrations were measured before and after a 12-h incubation by liquid-chromatography-coupled mass spectrometry (LC–MS)

[19] = akkermansia muciniphila, 12 h, 2 µM
Description: The drug is tested on Akkermansia muciniphila strain: ATCC BAA-835 for biotransformation. The drug concentrations were measured before and after a 12-h incubation by liquid-chromatography-coupled mass spectrometry (LC–MS)

[20] = The drug is tested on Bacteroides finegoldii strain: DSM17565 for biotransformation. The drug concentrations were measured before and after a 12-h incubation by liquid-chromatography-coupled mass spectrometry (LC–MS); details: 2 µM

| Compound | Bacterial Biotransformation [1] | Bacterial Biotransformation [2] | Bacterial Biotransformation [3] | Bacterial Biotransformation [4] | Bacterial Biotransformation [5] | Bacterial Biotransformation [6] | Bacterial Biotransformation [7] | Bacterial Biotransformation [8] | Bacterial Biotransformation [9] | Bacterial Biotransformation [10] | Bacterial Biotransformation [11] | Bacterial Biotransformation [12] | Bacterial Biotransformation [13] | Bacterial Biotransformation [14] | Bacterial Biotransformation [15] | Bacterial Biotransformation [16] | Bacterial Biotransformation [17] | Bacterial Biotransformation [18] | Bacterial Biotransformation [19] | Bacterial Biotransformation [20] |
| --- | --- | --- | --- | --- | --- | --- | --- | --- | --- | --- | --- | --- | --- | --- | --- | --- | --- | --- | --- | --- |
| CN1CCN(C(=O)O[C@H]2c3nccnc3C(=O)N2c2ccc(Cl)cn2)CC1 [ESZOPICLONE] | Compound NOT metabolized | Compound NOT metabolized | Compound NOT metabolized | Compound NOT metabolized | Compound NOT metabolized | Compound NOT metabolized | Compound metabolized | Compound NOT metabolized | Compound NOT metabolized | Compound metabolized | Compound NOT metabolized | Compound NOT metabolized | Compound NOT metabolized | Compound NOT metabolized | Compound NOT metabolized | Compound metabolized |  |  |  |  |
| CCc1nn(CCCN2CCN(c3cccc(Cl)c3)CC2)c(=O)n1CCOc1ccccc1 [NEFAZODONE] | Compound NOT metabolized | Compound NOT metabolized | Compound NOT metabolized | Compound NOT metabolized | Compound NOT metabolized |  |  | Compound NOT metabolized | Compound NOT metabolized | Compound NOT metabolized | Compound NOT metabolized | Compound NOT metabolized | Compound NOT metabolized | Compound NOT metabolized | Compound NOT metabolized | Compound NOT metabolized | Compound NOT metabolized | Compound NOT metabolized | Compound NOT metabolized |  |
| COCCCC/C(=N\OCCN)c1ccc(C(F)(F)F)cc1.O=C(O)/C=C\C(=O)O [FLUVOXAMINE MALEATE] | Compound metabolized |  | Compound NOT metabolized | Compound metabolized | Compound NOT metabolized | Compound NOT metabolized | Compound metabolized | Compound NOT metabolized | Compound NOT metabolized |  | Compound NOT metabolized | Compound NOT metabolized | Compound NOT metabolized | Compound NOT metabolized | Compound NOT metabolized | Compound NOT metabolized |  | Compound NOT metabolized |  | Compound NOT metabolized |
| COCCc1ccc(OCC(O)CNC(C)C)cc1.COCCc1ccc(OCC(O)CNC(C)C)cc1.O=C(O)C(O)C(O)C(=O)O (stereo not given) [METOPROLOL TARTRATE] | Compound metabolized | Compound NOT metabolized | Compound NOT metabolized | Compound NOT metabolized | Compound NOT metabolized | Compound NOT metabolized | Compound NOT metabolized | Compound NOT metabolized |  | Compound NOT metabolized | Compound NOT metabolized | Compound NOT metabolized | Compound NOT metabolized | Compound NOT metabolized | Compound NOT metabolized | Compound NOT metabolized | Compound NOT metabolized | Compound NOT metabolized |  | Compound NOT metabolized |
| O=C1[C@H](CC[C@H](O)c2ccc(F)cc2)[C@@H](c2ccc(O)cc2)N1c1ccc(F)cc1 [EZETIMIBE] | Compound NOT metabolized | Compound NOT metabolized |  | Compound NOT metabolized | Compound NOT metabolized | Compound metabolized |  | Compound NOT metabolized | Compound NOT metabolized | Compound NOT metabolized | Compound NOT metabolized | Compound NOT metabolized | Compound NOT metabolized | Compound NOT metabolized | Compound NOT metabolized | Compound NOT metabolized | Compound NOT metabolized |  | Compound NOT metabolized | Compound NOT metabolized |
| CNCC[C@H](Oc1cccc2ccccc12)c1cccs1 [DULOXETINE] | Compound metabolized | Compound NOT metabolized | Compound NOT metabolized | Compound metabolized | Compound NOT metabolized | Compound metabolized |  |  | Compound metabolized |  | Compound NOT metabolized | Compound NOT metabolized | Compound NOT metabolized | Compound metabolized |  | Compound metabolized | Compound NOT metabolized | Compound NOT metabolized | Compound metabolized | Compound NOT metabolized |
| OCCN1CCN(CCCN2c3ccccc3Sc3ccc(C(F)(F)F)cc32)CC1 [FLUPHENAZINE] | Compound NOT metabolized | Compound NOT metabolized | Compound metabolized | Compound NOT metabolized | Compound NOT metabolized | Compound metabolized | Compound metabolized | Compound NOT metabolized | Compound metabolized |  | Compound NOT metabolized | Compound metabolized | Compound NOT metabolized | Compound NOT metabolized |  | Compound metabolized | Compound metabolized | Compound metabolized | Compound NOT metabolized | Compound metabolized |
| CCN(CC)CCNC(=O)c1cc(Cl)c(N)cc1OC [METOCLOPRAMIDE] | Compound NOT metabolized | Compound NOT metabolized | Compound NOT metabolized | Compound NOT metabolized | Compound NOT metabolized | Compound NOT metabolized | Compound NOT metabolized | Compound NOT metabolized | Compound NOT metabolized | Compound NOT metabolized | Compound NOT metabolized | Compound NOT metabolized | Compound NOT metabolized | Compound NOT metabolized | Compound NOT metabolized | Compound NOT metabolized | Compound NOT metabolized | Compound NOT metabolized |  | Compound NOT metabolized |
| O=C(O)CCc1nc(-c2ccccc2)c(-c2ccccc2)o1 [OXAPROZIN] | Compound metabolized | Compound NOT metabolized |  | Compound NOT metabolized | Compound metabolized | Compound metabolized | Compound metabolized | Compound metabolized | Compound metabolized | Compound metabolized | Compound NOT metabolized | Compound NOT metabolized | Compound NOT metabolized | Compound NOT metabolized | Compound NOT metabolized | Compound metabolized | Compound metabolized | Compound metabolized |  | Compound metabolized |

Reference: ChEMBL document CHEMBL5303573, “Mapping human microbiome drug metabolism by gut bacteria and their genes” (Nature, 2019)
